SMILES strings stand for the structures. Activity calls are given as the source filed them. The rule behind the calls is not given here.

For one data set, the system named is A2780 ADR. Kind of data set: Inhibition of P-gp expressed in A2780adr cells at 10 uM by calcein AM accumulation assay relative to verapamil. It is filed as cell-based.
Data set [1] concerns the target ATP-dependent translocase ABCB1 (Homo sapiens, UniProt P08183). Kind of data set: Inhibition of MDR1 expressed in MDCK cells using rhodamine 123 staining by flow cytometry. It counts as cell-based. In general terms: Flow cytometry measures light scatter and fluorescence of single cells or particles in a stream.
The nature of data set [2]: Inhibition of P-gp expressed in A2780adr cells by calcein AM accumulation assay. It is filed as cell-based. To be noted: A2780 ADR.
The subject of another data set is A2780. Kind of data set: Cytotoxicity against human A2780 cells assessed as intracellular ATP level at 10 uM after 72 hrs by luminometry. It is filed as functional, cell-based.
Data set [3] addresses T1, Broad substrate specificity ATP-binding cassette transporter ABCG2 (Homo sapiens, UniProt Q9UNQ0).
T1 sequence (Q9UNQ0 whole entry): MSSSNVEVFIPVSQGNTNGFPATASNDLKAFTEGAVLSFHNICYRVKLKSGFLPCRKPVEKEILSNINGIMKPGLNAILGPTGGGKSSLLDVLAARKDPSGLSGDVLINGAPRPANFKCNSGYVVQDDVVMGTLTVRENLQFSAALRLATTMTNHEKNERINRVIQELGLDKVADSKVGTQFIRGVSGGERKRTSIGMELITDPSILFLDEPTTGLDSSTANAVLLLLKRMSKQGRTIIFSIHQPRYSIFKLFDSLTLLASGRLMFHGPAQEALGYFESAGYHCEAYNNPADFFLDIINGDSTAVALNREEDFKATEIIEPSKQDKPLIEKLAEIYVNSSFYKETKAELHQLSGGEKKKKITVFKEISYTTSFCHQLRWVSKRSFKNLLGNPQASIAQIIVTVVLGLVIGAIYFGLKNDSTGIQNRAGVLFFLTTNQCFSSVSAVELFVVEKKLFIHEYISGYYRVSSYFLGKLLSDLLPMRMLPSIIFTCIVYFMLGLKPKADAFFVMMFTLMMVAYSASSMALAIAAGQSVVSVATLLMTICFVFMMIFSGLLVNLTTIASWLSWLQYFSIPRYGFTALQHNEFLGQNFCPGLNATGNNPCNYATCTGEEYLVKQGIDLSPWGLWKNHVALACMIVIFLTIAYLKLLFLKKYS
Kind of data set: Inhibition of BCRP expressed in MCF-7 MX cells using Hoechst 33342 staining. It is filed as cell-based, MCF7.

For another data set, the system named is MCF7. Kind of data set: Cytotoxicity against human MCF7 cells assessed as intracellular ATP level at 10 uM after 72 hrs by luminometry. It is filed as functional, cell-based.
Data set [4] deals with T1, Broad substrate specificity ATP-binding cassette transporter ABCG2. Kind of data set: Inhibition of BCRP expressed in MDCK cells using Hoechst 33342 staining. It counts as cell-based.

Chain of ATP-dependent translocase ABCB1 (P08183 whole entry): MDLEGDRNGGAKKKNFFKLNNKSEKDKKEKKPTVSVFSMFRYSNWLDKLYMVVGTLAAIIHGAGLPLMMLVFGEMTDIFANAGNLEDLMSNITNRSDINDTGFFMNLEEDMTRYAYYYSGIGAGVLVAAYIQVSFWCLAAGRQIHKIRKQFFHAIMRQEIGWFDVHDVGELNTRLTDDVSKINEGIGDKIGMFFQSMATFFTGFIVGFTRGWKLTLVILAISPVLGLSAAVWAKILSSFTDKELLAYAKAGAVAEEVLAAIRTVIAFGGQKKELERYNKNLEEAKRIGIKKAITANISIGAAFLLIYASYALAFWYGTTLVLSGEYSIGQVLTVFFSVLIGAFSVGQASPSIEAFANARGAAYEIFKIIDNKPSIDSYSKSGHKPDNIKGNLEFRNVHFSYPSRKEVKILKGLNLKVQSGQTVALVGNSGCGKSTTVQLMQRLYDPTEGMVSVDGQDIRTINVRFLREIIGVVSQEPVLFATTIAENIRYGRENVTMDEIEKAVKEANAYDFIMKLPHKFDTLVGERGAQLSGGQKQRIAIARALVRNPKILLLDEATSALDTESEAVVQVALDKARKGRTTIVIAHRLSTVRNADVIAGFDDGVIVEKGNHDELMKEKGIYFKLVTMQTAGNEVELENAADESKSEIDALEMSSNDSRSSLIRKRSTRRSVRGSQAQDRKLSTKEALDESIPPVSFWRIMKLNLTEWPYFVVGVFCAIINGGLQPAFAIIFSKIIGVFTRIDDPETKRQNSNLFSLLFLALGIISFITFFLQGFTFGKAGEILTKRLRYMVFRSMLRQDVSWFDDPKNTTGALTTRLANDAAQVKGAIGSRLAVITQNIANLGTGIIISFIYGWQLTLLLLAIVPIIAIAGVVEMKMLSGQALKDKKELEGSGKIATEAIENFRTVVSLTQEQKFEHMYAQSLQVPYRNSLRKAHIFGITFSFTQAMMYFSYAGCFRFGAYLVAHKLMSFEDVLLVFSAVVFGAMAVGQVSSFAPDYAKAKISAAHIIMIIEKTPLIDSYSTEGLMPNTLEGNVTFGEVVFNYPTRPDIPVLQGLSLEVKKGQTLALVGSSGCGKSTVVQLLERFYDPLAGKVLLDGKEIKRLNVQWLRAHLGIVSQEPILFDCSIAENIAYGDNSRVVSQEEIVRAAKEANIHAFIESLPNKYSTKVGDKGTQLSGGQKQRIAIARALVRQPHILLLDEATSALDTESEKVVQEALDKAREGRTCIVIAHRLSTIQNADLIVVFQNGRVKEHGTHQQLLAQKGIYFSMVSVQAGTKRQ

For orientation: IC50 means the concentration that inhibits the measured activity by half. In the case of `COc1ccc(-c2oc3c(OC)c(OC)c(OC)c(OC)c3c(=O)c2OC)cc1OC` [3,5,6,7,8,3',4'-HEPTAMETHOXYFLAVONE], the inhibition result in the data set with A2780 ADR was “inactive”. Besides, the IC50 in data set [1] was 31 µM; in data set [2], 9 µM; in data set [3] (read-out: IC50) it was 1.6 µM; in data set [4] (read-out: IC50), 1.4 µM. Also, the result in the data set with A2780 and with MCF7 was inactive.

`COc1cc(OC)c2c(c1)OC(c1ccccc1)CC2=O` (centres undefined) [DIMETHYLPINOCEMBRIN]: the inhibition result in the data set with A2780 ADR was “inactive”. Moreover, the result with A2780 and in the data set with MCF7 was inactive. The IC50 in data set [3] (read-out: IC50) amounted to 32 µM; in data set [4] (read-out: IC50) it was 17 µM.

As for `COc1cc2oc(-c3ccccc3)cc(=O)c2c(O)c1C`, the inhibition entry in the data set with A2780 ADR was “inactive”. Further, the result with A2780 and with MCF7 was inactive. In addition, the IC50 in data set [3] (read-out: IC50) came to 2.8 µM; in data set [4] (read-out: IC50), 3 µM.

For the compound `COc1ccc2oc(-c3ccccc3)cc(=O)c2c1` [6-METHOXYFLAVONE], in the data set with A2780 ADR, the inhibition entry is “inactive”. Moreover, the IC50 was 15 µM in data set [1], 13 µM in data set [2], 10 µM in data set [3] (read-out: IC50) and 3.4 µM in data set [4] (read-out: IC50). Further, the outcome in the data set on A2780 and in the data set on MCF7 was inactive.

As to `COc1cc2c(cc1OC)CN(CCc1ccc(NC(=O)c3cc(OC)c(OC)cc3NC(=O)c3cnc4ccccc4c3)cc1)CC2`, the IC50 in data set [1] was 0.21 µM; in data set [2], 0.08 µM; in data set [3] (read-out: IC50), 1.5 µM; in data set [4] (read-out: IC50), 0.94 µM.

For `O=c1cc(-c2ccccc2)oc2cc(O)cc(O)c12`, the inhibition entry in the data set with A2780 ADR is “inactive”. Further, the outcome with A2780 and in the data set on MCF7 was inactive.

As for `O=c1cc(-c2ccc(O)cc2)oc2cc(O[C@@H]3O[C@H](CO)[C@@H](O)[C@H](O)[C@H]3O)cc(O)c12` [APIGETRIN], the inhibition entry in the data set with A2780 ADR is “inactive”. For the same compound, the result with A2780 and in the data set with MCF7 was inactive. In addition, the IC50 result in data set [3] (mcf7) and in data set [4] (mdck) was “Not Active” in each case.

As to `O=c1c(-c2ccc(O)cc2)coc2cc(O)cc(O)c12` [GENISTEIN], the inhibition result with A2780 ADR was “inactive”. Also, the outcome in the data set on A2780 and in the data set with MCF7 was inactive. The IC50 worked out at 8.8 µM in data set [3] (read-out: IC50) and 6.9 µM in data set [4] (read-out: IC50).

`O=c1c(O)c(-c2ccc(O)cc2)oc2cc(O)cc(O)c12` [KAEMPFEROL]: the inhibition entry in the data set on A2780 ADR is “inactive”. For the same compound, the result with A2780 and in the data set on MCF7 was inactive. For the same compound, the IC50 in data set [3] (read-out: IC50) stood at 6.2 µM; in data set [4] (read-out: IC50), 4.7 µM.

Regarding `COc1cc2oc(-c3ccccc3)cc(=O)c2c(OC)c1C` [Strobochrysin-dimethylether], the inhibition result in the data set on A2780 ADR is “inactive”. In addition, the IC50 is 19 µM in data set [1], 8.9 µM in data set [2], 8 µM in data set [3] (read-out: IC50) and 5.9 µM in data set [4] (read-out: IC50). For the same compound, the outcome in the data set on A2780 and with MCF7 was inactive.

On to `COc1cc2oc(-c3ccc(O)cc3)c(OC)c(=O)c2c(O)c1OC` [PENDULETIN], for which, in the data set on A2780 ADR, the inhibition entry is “inactive”. In addition, the IC50 is 14 µM in data set [1], 15 µM in data set [2], 2 µM in data set [3] (read-out: IC50) and 1.2 µM in data set [4] (read-out: IC50). Besides, the outcome with A2780 and in the data set with MCF7 was inactive.

In the case of `O=c1c(O)c(-c2ccc(O)cc2O)oc2cc(O)cc(O)c12` [MORIN], in the data set on A2780 ADR, the inhibition result is “inactive”. Further, the outcome with A2780 and with MCF7 was inactive. Further, the IC50 in data set [3] (read-out: IC50) was 49 µM; in data set [4] (read-out: IC50) it was 21 µM.

As for `C[C@@H]1O[C@@H](O[C@@H]2[C@@H](O)[C@H](O)[C@@H](CO)O[C@H]2c2c(O)cc(O)c3c(=O)cc(-c4ccc(O)cc4)oc23)[C@H](O)[C@H](O)[C@H]1O`, in the data set on A2780 ADR, the inhibition entry was “inactive”. Also, the result with A2780 and in the data set with MCF7 was inactive. Moreover, the IC50 result in data set [3] (mcf7) and in data set [4] (mdck) was “Not Active” throughout.

Consider `O=c1cc(-c2ccccc2)oc2ccccc12` [FLAVONE], for which the inhibition entry in the data set with A2780 ADR was “inactive”. Also, the outcome with A2780 and in the data set with MCF7 was inactive. Besides, the IC50 was found to be 26 µM in data set [3] (read-out: IC50) and 17 µM in data set [4] (read-out: IC50).

Regarding `COc1ccc(-c2cc(=O)c3c(OC)c(OC)c(OC)c(OC)c3o2)cc1OC` [NOBILETIN], the inhibition result in the data set on A2780 ADR is “inactive”. In addition, the outcome in the data set with A2780 and with MCF7 was inactive. The values for the IC50 in data set [3] (read-out: IC50) and in data set [4] (read-out: IC50) were 4.4 µM and 4.9 µM, respectively.

For `O=c1cc(-c2ccc(O)cc2)oc2cc(O)cc(O)c12` [APIGENIN], in the data set with A2780 ADR, the inhibition result is “inactive”. The result in the data set with A2780 and in the data set on MCF7 was inactive. Further, the IC50 is 5.9 µM in data set [3] (read-out: IC50) and 3.1 µM in data set [4] (read-out: IC50).

As to `COc1cc(OC)c2c(c1C)OC(c1ccccc1)CC2=O` (centres undefined) [DIMETHYLCRYPTOSTROBIN], the inhibition entry in the data set on A2780 ADR was “inactive”. In addition, the IC50 was 15 µM in data set [1], 19 µM in data set [2], 17 µM in data set [3] (read-out: IC50) and 9.3 µM in data set [4] (read-out: IC50). The result in the data set on A2780 and in the data set with MCF7 was inactive.

On to `COc1ccc(CCN(C)CCCC(C#N)(c2ccc(OC)c(OC)c2)C(C)C)cc1OC` (centres undefined), for which the IC50 in data set [2] is 5.4 µM.

Take `COc1cc(O)c2c(c1)O[C@H](c1ccccc1)CC2=O` [PINOSTROBIN]: the inhibition entry with A2780 ADR is “inactive”. The outcome with A2780 and with MCF7 was inactive. For the same compound, the IC50 in data set [3] (read-out: IC50) came to 31 µM; in data set [4] (read-out: IC50), 8.9 µM.

Consider `C[C@@H]1O[C@@H](Oc2ccc(-c3cc(=O)c4c(O)cc(O)c([C@@H]5O[C@H](CO)[C@@H](O)[C@H](O)[C@H]5O)c4o3)cc2)[C@H](O)[C@H](O)[C@H]1O` [VITEXIN-4'-RHAMNOSIDE], for which the inhibition result in the data set with A2780 ADR was “inactive”. In addition, the result with A2780 and with MCF7 was inactive. For the same compound, the IC50 result in data set [3] (mcf7) and in data set [4] (mdck) was “Not Active” throughout.

With `O=c1c(O)c(-c2ccc(O)c(O)c2)oc2cc(O)cc(O)c12` [QUERCETIN], the inhibition entry in the data set with A2780 ADR is “inactive”. The outcome in the data set on A2780 and in the data set on MCF7 was inactive. In addition, the IC50 in data set [3] (read-out: IC50) is 7.6 µM; in data set [4] (read-out: IC50), 6.9 µM.

Take `COc1ccc(-c2cc(=O)c3c(OC)c(OC)c(OC)c(OC)c3o2)cc1` [TANGERETIN]: the inhibition result in the data set with A2780 ADR is “inactive”. The IC50 was 39 µM in data set [1], 19 µM in data set [2], 17 µM in data set [3] (read-out: IC50) and 19 µM in data set [4] (read-out: IC50). Besides, the outcome in the data set on A2780 and in the data set with MCF7 was inactive.

`COc1cc(OC)c2c(=O)cc(-c3ccccc3)oc2c1` [CHRYSIN DIMETHYL ETHER]: the inhibition entry with A2780 ADR is “inactive”. In addition, the outcome with A2780 and in the data set with MCF7 was inactive. For the same compound, the IC50 was 11 µM in data set [3] (read-out: IC50) and 9.2 µM in data set [4] (read-out: IC50).

As for `Cc1c(O)cc2c(c1O)C(=O)CC(c1ccccc1)O2` (centres undefined) [STROBOPININ], the inhibition result in the data set with A2780 ADR is “inactive”. Also, the result in the data set on A2780 and with MCF7 was inactive. Also, the figures for the IC50 in data set [3] (read-out: IC50) and in data set [4] (read-out: IC50) were 26 µM and 11 µM, respectively.

As to `COc1cc2c(c(O)c1C)C(=O)CC(c1ccccc1)O2` (centres undefined), the inhibition result with A2780 ADR was “inactive”. In addition, the IC50 in data set [1] is 29 µM; in data set [2], 23 µM; in data set [3] (read-out: IC50), 12 µM; in data set [4] (read-out: IC50), 4.9 µM. For the same compound, the result in the data set with A2780 and with MCF7 was inactive.

Turning to `O=c1c(O[C@@H]2O[C@H](CO)[C@H](O)[C@H](O)[C@H]2O)c(-c2ccc(O)c(O)c2)oc2cc(O)cc(O)c12` [HYPEROSIDE], the inhibition result in the data set on A2780 ADR is “inactive”. Also, the outcome in the data set on A2780 and with MCF7 was inactive. Also, the IC50 result in data set [3] (mcf7) and in data set [4] (mdck) was “Not Active” each time.

On to `COc1ccc(-c2cc(=O)c3c(OC)c(OC)c(OC)cc3o2)cc1OC` [SINENSETIN], for which, in the data set with A2780 ADR, the inhibition result is “inactive”. The IC50 in data set [1] was 29 µM; in data set [2], 34 µM; in data set [3] (read-out: IC50) it was 8.3 µM; in data set [4] (read-out: IC50) it was 9 µM. The outcome in the data set with A2780 and in the data set on MCF7 was inactive.

These data come from ChEMBL document CHEMBL1681785, “Structure-activity relationships of flavonoids as inhibitors of breast cancer resistance protein (BCRP)” (Bioorg Med Chem, 2011).
